The values that follow come from a melting point compilation (Tetko et al.; mined from patent text by program, amines drawn as free bases though some values may be those of a salt).

As a reminder, the melting point is the temperature of the solid-liquid transition.

Each structure is given as a SMILES string.

On to `O=c1[nH]c2sccc2c2ccccc12`, for which the melting point lay within 266 to 268 °C. Under `Nc1ccccc1Oc1ccccc1-c1ccccc1Oc1ccccc1N` stands 175 °C; under `CC(C)(C)OC(=O)N[C@@H](CC(N)=O)C(=O)N1CCN(Cc2ccccc2)CC1`, 98 to 100 °C. `CCc1cccc(CC(=O)O)c1OCCCc1cn(-c2ccc(C(F)(F)F)cn2)nc1C(C)(C)C` registered a melting point of 98 to 99 °C. In turn, `CON=C(C)c1cc2c(Cl)cc(F)c(-n3c(=O)cc(C(F)(F)F)n(C)c3=O)c2o1` displayed a melting point of 176 to 178 °C. Under `CN1C(C)(C)CC(OC(=O)CCc2cc(-n3nc4ccc(Cl)cc4n3)c(O)c(C(C)(C)C)c2)CC1(C)C` stands 150 to 158 °C.

The compound `N#Cc1ccccc1NC(=O)c1ccc(-n2nc(C(F)(F)F)cc2C(F)(F)F)cc1` yielded a melting point of 203 to 205 °C. Under `Cc1ccc(NC(=O)c2cccc(C(F)(F)F)c2)cc1Br` stands 153 to 155 °C; under `CN(C)S(=O)(=O)c1ccccc1-c1cnc(N)c(C(=O)Nc2cccnc2)n1`, 222 to 223 °C; under `Cc1ccc(OCCN2CCN(c3nc(N)nc(-c4cc(Cl)ccc4Cl)n3)CC2)cc1`, 140 to 141 °C.

In turn, `Clc1cccc(-c2cc(OCC3CO3)no2)c1` (stereo not given) yielded a melting point of 86 to 87 °C. With `N#Cc1ccc(NC(=O)c2cccc(OCc3ccc(F)cc3)c2)nc1` the figure was 170 to 171 °C.

`O=S(=O)(c1cc(Cl)cc(Cl)c1)c1nnc(C(F)(F)F)s1`: the melting point worked out at 123 °C. Under `O[C@H]1C[C@@H](c2ccccc2)c2ccc(Cl)cc21` stands 109 °C.

For the compound `CCC1COc2ccccc2C(=O)C1=O` (stereo not given), the melting point was 63 to 66 °C. With `CN(C)CCCc1c[nH]c(-c2ccc(F)cc2)c1-c1ccncc1` the figure was 177 to 179 °C; with `O=C(NCc1ccco1)c1cc2ccnc(Cl)c2[nH]1`, 205 to 209 °C; with `CCCCc1nc2cc(C(=O)O)ccc2n1Cc1ccccc1Cl`, 238 to 239 °C.

Regarding `CCOC(=O)c1ccccc1N(CC(=O)N(C)c1ccccc1)C(=O)CNC(=O)Nc1cccc(CO)c1`, the melting point came out at 184 °C. In the case of `CCOC(=O)c1cnn2c(-c3cccc(C)c3)ccnc12`, the melting point lay in the range of 69 to 70 °C. Under `CC(Cc1ccccc1)NC(=O)C(F)(F)F` (stereo not given) stands 82 to 83 °C; under `O=C(O)c1ccc(Br)c(CN2CCC(c3cn(Cc4ccncc4)c4ccccc34)CC2)c1`, 167 to 168 °C; under `Cn1c2ccccc2c2oc(C#N)cc(=O)c21`, 190 to 192 °C. `CCOC(=O)Cn1c(=O)c(=O)[nH]c2cc(Br)ccc21`: the melting point was in the range of 282 to 283 °C. With `CCCCCCCCCCOC(=O)Oc1ccc(-c2ccc(C#N)cc2)cc1` the figure was 59.3 to 60 °C; with `Cc1cc(NC(=O)c2c(Cl)cccc2Cl)c2nccc(Cl)c2c1`, 203 to 205 °C. For the compound `CCC(=O)OCC1(COC(=O)CC)c2ccccc2-c2ccccc21`, the melting point lay in the range of 82 to 83 °C. With `NNC1=NC2CCCc3cccc(c32)N1` (stereo not given) the figure was 191 to 193 °C; with `COCc1nc2cccnc2n1Cc1ccc(C(=O)N(C(C)C)C2CCCCC2)cc1OC`, 126 °C.

As for `CSc1ccc(Cc2cccc(-c3c(O)c4ccc(Cl)cc4[nH]c3=O)c2)cc1`, the melting point was 296 to 297 °C. With `OC[C@@H](O)[C@@H](O)[C@H](O)[C@H](O)CCl` the figure was 125 to 127 °C; with `CC(C)(CCC(=O)O)N(Cl)Cl`, 35 to 38 °C; with `c1ccc2nc3c(nc2c1)OCC1CCCN31` (single isomer, unassigned; (+)), 121 to 123 °C.

For `CCOC(=O)c1cnn(C)c1C(=O)Nc1ccc2nc(N3CCOCC3)nn2c1`, the melting point turned out to be 234 °C. Compound `CC1(C)c2ccc(C(F)CN3CCN(c4nsc5ccccc45)CC3)cc2C(C)(C)C1O` (stereo not given) registered a melting point of 49 to 54 °C.
